In US8697715B2, “Serine/threonine kinase inhibitors” (Array BioPharma Inc., priority 2012, dated 2014):

Tested on: PMA-stimulated P90RSK(Ser380) phosphorylation in HepG2 cells
Test: Cellular P90RSK(Ser380) Phosphorylation Assay
Assay type: cell-based
Conditions: Homo sapiens, read-out: Biological Example 2 IC50 (nM), 1.5 hours compound incubation, PMA 100 ng/mL 30 minutes, normalized to GAPDH, single assay or mean of multiple assays
Experimental: Inhibition of PMA-stimulated P90RSK(Ser380) phosphorylation was determined by the following in vitro cellular mechanistic assay, which comprises incubating cells with a compound for 1.5 hours and quantifying fluorescent pP90RSK(Ser380) signal on fixed cells and normalizing to GAPDH signal.
HepG2 cells were obtained from ATCC and grown in DMEM supplemented with 10% fetal bovine serum. Cells were plated in 96-well plates at 35,000 cells/well and allowed to attach overnight at 37° C./5% CO2. Diluted compounds were then added at a final concentration of 0.5% DMSO. After 1.5 hours compound incubation, cells were stimulated with the addition of phorbol 12-myristate 13-acetate (“PMA”) at a final concentration of 100 ng/mL; the PMA stimulation was a 30-minute incubation at 37° C./5% CO2. After the 30-minute PMA stimulation, cells were washed with phosphate buffered saline (“PBS”) and fixed in 3.7% formaldehyde in PBS at room temperature for 15-20 minutes. This was followed by another wash in PBS and then permeabilization in 100% MeOH at room temperature for 10-15 minutes. Following the permeabilization incubation, cells were washed in PBS/0.05% Tween-20, followed by a block in Odyssey blocking buffer (LI-COR Biosciences) for at least 1 hour. […] Both secondary antibodies were used at a 1:1000 dilution. Cells were then washed and analyzed for fluorescence at both wavelengths using the Odyssey Infrared Imaging System (LI-COR Biosciences). Phosphorylated P90RSK(Ser380) signal was normalized to GAPDH signal.

| Structure (SMILES) | IC50 [nM] |
| --- | --- |
| CC(C)(N)C(=O)OC[C@H](c1ccc(Cl)c(F)c1)n1ccc(-c2ccnc(NC3CCOCC3)n2)cc1=O [Example 290, (S)-2-(4-chloro-3-fluorophenyl)-2-(2-oxo-4-(2-((tetrahydro-2H-pyran-4-yl)amino)pyrimidin-4-yl)pyridin-1(2H)-yl)ethyl 2-amino-2-methylpropanoate] | 26.5 |
| O=c1cc(-c2ccnc(NC3CCOCC3)n2)ccn1[C@H](CO)c1cc2cc(F)ccc2[nH]1 [Example 291, (S)-1-(1-(5-fluoro-1H-indol-2-yl)-2-hydroxyethyl)-4-(2-((tetrahydro-2H-pyran-4-yl)amino)pyrimidin-4-yl)pyridin-2(1H)-one] | 55.9 |
| CC(=O)OC[C@H](c1ccc(Cl)c(F)c1)n1ccc(-c2ccnc(Nc3ccnn3C)n2)cc1=O [Example 293, (S)-2-(4-chloro-3-fluorophenyl)-2-(4-(2-((1-methyl-1H-pyrazol-5-yl)amino)pyrimidin-4-yl)-2-oxopyridin-1(2H)-yl)ethyl acetate] | 16.8 |
| C=C(c1ccc(Cl)c(F)c1)n1ccc(-c2ccnc(Nc3ccnn3CC)n2)cc1=O [Example 295, 1-(1-(4-chloro-3-fluorophenyl)vinyl)-4-(2-((1-ethyl-1H-pyrazol-5-yl)amino)pyrimidin-4-yl)pyridin-2(1H)-one] | 204 |
| NC[C@H](c1ccc(Cl)c(F)c1)n1ccc(-c2ccnc(NC3CCOCC3)n2)cc1=O [Example 305, (S)-1-(2-amino-1-(4-chloro-3-fluorophenyl)ethyl)-4-(2-((tetrahydro-2H-pyran-4-yl)amino)pyrimidin-4-yl)pyridin-2(1H)-one] | 53 |
| O=c1cc(-c2ccnc(NC3CCOCC3)n2)ccn1[C@H](COP(=O)(O)O)c1ccc(Cl)c(F)c1 [Example α, (S)-2-(4-chloro-3-fluorophenyl)-2-(2-oxo-4-(2-((tetrahydro-2H-pyran-4-yl)amino)pyrimidin-4-yl)pyridin-1(2H)-yl)ethyl dihydrogen phosphate] | 955 |
| O=c1cc(-c2ccnc(NC3CCOCC3)n2)ccn1[C@H](COCOP(=O)(O)O)c1ccc(Cl)c(F)c1 [Example β, (S)-(2-(4-chloro-3-fluorophenyl)-2-(2-oxo-4-(2-((tetrahydro-2H-pyran-4-yl)amino)pyrimidin-4-yl)pyridin-1(2H)-yl)ethoxy)methyl dihydrogen phosphate] | 99.6 |
